Measured values taken from patent US12409162B2, “Carbazole derivatives sensitizing cells to anti-cancer agents” (CENTRE NATIONAL DE LA RECHERCHE SCIENTIFIQUE, priority 2019, dated 2025).
Where two headings read alike, the source gives them in different places. Values belong to the compound of their own block, whether it stands above or below them.

Key:
HeLa cells [1] = assay: Prestoblue cell viability assay on HeLa cells (compounds alone and with paclitaxel); type: cell-based; details: for GI50: Homo sapiens, HeLa, 72 h
Method: (§1) Cell viability was analyzed using the colorimetric Prestoblue assay (Invitrogen, #A13262). Cells were seeded in 96 well microplates (Greiner, #655077) at a density of 2,500 cells per well and allowed to adhere for 24 h before being treated for 72 h with either DMSO (0.1% final concentration) or drugs at indicated concentrations. After the 72 h treatment, 10 μL A Prestoblue was added to each well and cells were incubated for another 45 min. The absorbance of each well was measured using FLUOstar Optima microplate reader (Excitation, 544 nm; Emission, 580 nm).
First, the cytotoxicity on HeLa cells of compounds (I-a), (I-c) (I-f), (I-h), (I-e), (I-m), (I-n) and (I-s) was assessed with the above described “prestoblue” assay.
Then, HeLa cells were treated during 72 hours with different concentrations of a mixture of paclitaxel (0.05, 0.1, 0.25, 0.5, 1, 2.5, 5 nM) and compounds (I-a), (I-f), (I-h), (I-e), (I-m), (I-n), (I-c) and (I-s).

HeLa cells [2] = assay: FITC Annexin V apoptosis assay by flow cytometry; type: cell-based
Method: Apoptosis assay was performed with FITC Annexin V Apoptosis Detection Kit I (BD Biosciences, #556547) using flow cytometry and analyzed by FCS express software.

HeLa cells [3] = assay: Cell cycle distribution by flow cytometry; type: cell-based; details: for cell cycle effect: HeLa
Method: For flow cytometry analysis, Hela cells were treated with the indicated concentrations of compound (I-a) for 12 hours, 24 hours and 48 hours. Cells were then harvested and washed by centrifugation in PBS. Then, 10^5 cells were fixed in 1 mL of 70% methanol at 4° C. overnight. Following two washes with PBS the cells were incubated with 50 μg·mL^−1 propidium iodide and 0.2 mg·mL^−1 RNase A/PBS for 30 min at 37° C. before analysis. The percentage of cells in the specific cell-cycle phases (G0, G1, S, G2, and M) was determined using an Accuri C6 flow cytometer (Becton Dickinson). The results are expressed as the mean±SD of three separate experiments. The significance was determined by a Student's t-test (*p<0.05, **p<0.01, ***p<0.0001, compared with the control). Flow cytometry analysis was performed using HeLa cells. […] The results are expressed as the mean±SD of three separate experiments. The significance was determined by a Student's t-test (*p<0.05, **p<0.01, ***p<0.0001, compared with the control).

HeLa cell tumors = assay: HeLa cell xenograft tumor growth in mice; type: in vivo; details: for weight of treated animals versus vehicle-treated animals: paclitaxel 2 to 8 mg/Kg or (I-a) 15 to 60 mg/Kg i.v. every two days during 10 days
Method: The effects on tumor growth of compound (I-a) and paclitaxel injected separately to the effect of a combined administration of compound (I-a) plus paclitaxel were compared in a tumor mouse model.
A first series of experiments (not shown) assessed that HeLa cell tumors were sensitive to therapeutic doses of paclitaxel. To that aim, mice bearing sizable tumors, formed of HeLa cells that have been xenografted, received intraveinous (i.v.) injections of paclitaxel (from 2 to 8 mg/Kg), every two days during 10 days. In the same experiment, the effect of compound (I-a) (from 15 to 60 mg/Kg, i.v.) injected with the same schedule was analyzed. […] The results confirmed the anti-tumor effect of high paclitaxel concentrations in this model. They also indicate that compound (I-a), when applied alone, has no significant anti-tumor activity, even at high concentrations.
A second experiment was conducted to study of the effect on tumor size of low (2 to 3 mg/Kg) paclitaxel doses in combination with different concentrations of compound (I-a).
Protocol for this combination study: 72 NMRI nude mice (5-week-old females) were injected subcutaneously with 10×10^6 exponentially dividing HeLa cells into the right flank. When tumors have reached a volume of about 200 mm 3 i.e. nine days after cell injection, mice were randomized in 9 groups of 8 mice each and drugs were injected intraveinously every two days. The first group received paclitaxel at 2 mg/kg, the second group received paclitaxel at 3 mg/Kg, the third group received compound (I-a) at 40 mg/Kg, the fourth group received compound (I-a) at 60 mg/Kg, the fifth group received a combination of compound (I-a) (40 mg/Kg) and paclitaxel (2 mg/Kg), the sixth group received a combination of compound (I-a) (40 mg/Kg) and paclitaxel (3 mg/Kg), the seventh group received a combination of compound (I-a) (60 mg/Kg) and paclitaxel (2 mg/Kg), the eight group received a combination of compound (I-a) (60 mg/Kg) and paclitaxel (3 mg/Kg) and the ninth group received the vehicle (14% DMSO, 14% Tween 80 and 72% PBS). Tumor growth was monitored three times per week with a sliding caliper.

RPE-1 cells = assay: Prestoblue viability assay on non-cancerous RPE-1 cells; type: cell-based
Method: RPE-1 cells were incubated for 72 hours with the indicated combinations of compound (I-a)/paclitaxel. The percentage of viable cells was calculated following a Prestoblue assay, as described above. Data are presented as mean±SEM of 3 independent experiments.

4T1 cells = assay: Prestoblue cell viability assay on murine cancer cells; type: cell-based; details: mice breast cancer cell line (4T1 cells), 72 h
Method: as §1, with “μL” for “μL A”

[4] = test system: microtubule dynamics in GFP-EB3 transfected cells; assay: Microtubule dynamic instability by time-lapse fluorescence microscopy; type: cell-based; details: 25 μM
Method: The effect of a high dose (25 μM) of compound (I-a) on microtubule dynamic instability parameters was measured using time-lapse fluorescence microscopy on GFP-EB3 transfected cells (Table 1).

HeLa cells [5] = assay: Immunofluorescence of microtubules and DNA; type: cell-based
Method: The effect of a compound of formula (I) on cell cycle and mitosis of HeLa cells was analyzed by flow cytometry and immunofluorescence.
For immunofluorescence analysis, cells were grown for 48 hours on glass coverslips placed in 24-wells microplates. When cells reached 70% confluence the medium was replaced with a fresh one supplemented with compound (I-a). After a 5-hour exposure to compound (I-a), cells were fixed and permeabilized with −20° C. absolute methanol for 6 min. After washing and saturation with 3% BSA/PBS, cells were incubated for 45 min at room temperature (RT) with anti-alpha-tubulin antibody (1:4000). Cells were washed twice again and subsequently incubated with Alexa 488 conjugated anti-mouse antibody (1:1000) for 30 min at RT. DNA was stained with 20 μmol·L^−1 Hoechst 33342 and coverslips were mounted on microscopic slides with Mowiol 4-88 (Calbiochem, #475904). Images were captured with a Zeiss AxioimagerM2 microscope equipped with the acquisition software AxioVision and analyzed using the Fiji software.

[6] = paclitaxel 5 nM, after 15 hours
[7] = combination study, each compound administered separately (paclitaxel 2 or 3 mg/Kg, (I-a) 40 or 60 mg/Kg)
[8] = compound alone, HeLa cells, read-out: GI50 (50% of growth inhibition)

GI50 (HeLa cells [1]; 0.1 μM compound (I-h) added to paclitaxel, read-out: GI50 of Paclitaxel): 1.25 nM
GI50 (HeLa cells [1]; 0.2 μM compound (I-h) added to paclitaxel, read-out: GI50 of Paclitaxel): 1.07 nM
GI50 (HeLa cells [1]; 0.4 μM compound (I-h) added to paclitaxel, read-out: GI50 of Paclitaxel): 0.79 nM
GI50 (HeLa cells [1]; 0.8 μM compound (I-e) added to paclitaxel, read-out: GI50 of Paclitaxel): 1.36 nM
GI50 (HeLa cells [1]; 1.2 μM compound (I-c) added to paclitaxel, read-out: GI50 of Paclitaxel): 0.75 nM
GI50 (HeLa cells [1]; 1.2 μM compound (I-s) added to paclitaxel, read-out: GI50 of Paclitaxel): 0.75 nM
GI50 (HeLa cells [1]; 1.5 μM compound (I-e) added to paclitaxel, read-out: GI50 of Paclitaxel): 1.25 nM
GI50 (HeLa cells [1]; 1.5 μM compound (I-f) added to paclitaxel, read-out: GI50 of Paclitaxel): 1.36 nM
GI50 (HeLa cells [1]; 3 μM compound (I-a) added to paclitaxel, read-out: GI50 of Paclitaxel): 1.36 nM
GI50 (HeLa cells [1]; 3 μM compound (I-e) added to paclitaxel, read-out: GI50 of Paclitaxel): 1.2 nM
GI50 (HeLa cells [1]; 3 μM compound (I-f) added to paclitaxel, read-out: GI50 of Paclitaxel): 1.25 nM
GI50 (HeLa cells [1]; 3 μM compound (I-m) added to paclitaxel, read-out: GI50 of Paclitaxel): 1.5 nM
GI50 (HeLa cells [1]; 3 μM compound (I-n) added to paclitaxel, read-out: GI50 of Paclitaxel): 1.5 nM
GI50 (HeLa cells [1]; 6 μM compound (I-a) added to paclitaxel, read-out: GI50 of Paclitaxel): 1.2 nM
GI50 (HeLa cells [1]; 6 μM compound (I-f) added to paclitaxel, read-out: GI50 of Paclitaxel): 0.88 nM
GI50 (HeLa cells [1]; 6 μM compound (I-m) added to paclitaxel, read-out: GI50 of Paclitaxel): 1.5 nM
GI50 (HeLa cells [1]; 6 μM compound (I-n) added to paclitaxel, read-out: GI50 of Paclitaxel): 1.5 nM
GI50 (HeLa cells [1]; 12 μM compound (I-a) added to paclitaxel, read-out: GI50 of Paclitaxel): 0.68 nM
GI50 (HeLa cells [1]; 12 μM compound (I-m) added to paclitaxel, read-out: GI50 of Paclitaxel): 1.25 nM
GI50 (HeLa cells [1]; 12 μM compound (I-n) added to paclitaxel, read-out: GI50 of Paclitaxel): 1.25 nM
GI50 (HeLa cells [1]; paclitaxel alone (0 μM compound added), HeLa cells, read-out: GI50 of Paclitaxel): 1.5 nM
weight of treated animals versus vehicle-treated animals (HeLa cell tumors; first experiment): not significantly different
SMILES: CC(=O)O[C@H]1C(=O)[C@@]2(C)[C@H]([C@H](OC(=O)c3ccccc3)[C@]3(O)C[C@H](OC(=O)[C@H](O)[C@@H](NC(=O)c4ccccc4)c4ccccc4)C(C)=C1C3(C)C)[C@]1(OC(C)=O)CO[C@@H]1C[C@@H]2O [Paclitaxel, paclitaxel]
% of apoptosis (HeLa cells [2]; Paclitaxel 1 nM): 13.00 ± 0.48%
cell population blocked in G2/M phase (HeLa cells [3]; [6]): half of the cell population
cells in apoptosis (HeLa cells [3]; [6]): ~20%
tumor size (HeLa cell tumors; [7]): no effect
tumor size (HeLa cell tumors; first experiment, paclitaxel 4 and 8 mg/Kg i.v. every two days during 10 days): important reduction of tumor size
GI50 (RPE-1 cells; Homo sapiens, 72 hours): 7 nM

GI50 (HeLa cells [1]; [8]): 2000 nM
SMILES: Cc1cc(-n2ccc(CO)c2)c(C)c2c1[nH]c1ccc(Cl)cc12 [Compound (I-s)]

GI50 (HeLa cells [1]; [8]): 2000 nM
SMILES: Cc1cc(-n2ccc(C=O)c2)c(C)c2c1[nH]c1ccc(Cl)cc12 [(I-c)]

GI50 (HeLa cells [1]; [8]): 14800 nM
SMILES: Cc1cc(-n2cccc2)c(C)c2c1[nH]c1cc(Cl)ccc12 [(I-e)]

GI50 (HeLa cells [1]; [8]): 19400 to 21800 nM
weight of treated animals versus vehicle-treated animals (HeLa cell tumors; first experiment): not significantly different
SMILES: Cc1cc(-n2cccc2)c(C)c2c1[nH]c1ccc(Cl)cc12 [Compound (I-a)]
cytotoxicity of the compound on its own (HeLa cells [1]; 12 μM, HeLa cells): not cytotoxic
effect on cell apoptosis when combined with paclitaxel (HeLa cells [2]): synergistic effect
effect of the combination with paclitaxel on cell viability (4T1 cells): synergistic effect
% time spent growing [4]: 60.40 ± 0.25 %
% time spent in pause [4]: 39.60 ± 0.31 %
Catastrophe frequency (min^−1 ± SE) [4]: 2.74 ± 0.70 min⁻¹
Growth rate (μm/min ± SE) [4]: 10.20 ± 0.05 μm/min
Catastrophe frequency (μm^−1 ± SE) ([4]; distance-based): 0.46 ± 0.05 *** μm^−1
chromosome congression in mitotic cells (HeLa cells [5]; 12 μM): chromosome congression defects were visible in several mitotic cells
chromosome congression in mitotic cells (HeLa cells [5]; 25 μM): occurrence of such defects was increased
effect on microtubule network in interphase cells (HeLa cells [5]; 12-25 μM, 5-hour exposure): does not visibly perturb microtubule network
cell cycle effect (HeLa cells [3]; compound (I-a) 12 μM): blocked in G2/M phase
cell cycle effect (HeLa cells [3]; compound (I-a) 25 μM): the large majority of the cells is blocked in prometaphase
tumor size (HeLa cell tumors; [7]): no effect
tumor size (HeLa cell tumors; first experiment, compound (I-a) alone 15 to 60 mg/Kg i.v. every two days): did not induce a significant effect on tumor size
toxicity toward non-cancerous cells (RPE-1 cells; 72 hours): does not induce additional toxicity
effect on cell viability in combination with PTX (RPE-1 cells; compound at 25 μM): able to synergistically affect cell viability

GI50 (HeLa cells [1]; [8]): 16200 nM
SMILES: Cc1cc(-n2cccc2)c(C)c2c1[nH]c1ccc(Br)cc12 [(I-f)]

GI50 (HeLa cells [1]; [8]): 1060 nM
SMILES: Cc1cc(-n2ccc(C=O)c2)c(C)c2c1[nH]c1ccc(Br)cc12 [Compound (I-h)]
